Literature values, collected in patent publication US9849196B2, “Methods and compositions for altering photophysical properties of fluorophores via proximal quenching” (Cornell University, priority 2009, dated 2017).

Conditions: background statement

| solubility in aqueous solutions | Structure (SMILES) |
| --- | --- |
| highly insoluble | C1=CC=CC=CC=C1 [COT, cyclooctatetraene] |
| highly insoluble | O=[N+]([O-])c1ccc(CO)cc1 [NBA, p-nitrobenzyl alcohol] |
| highly insoluble | Cc1c(C)c2c(c(C)c1O)CCC(C)(C(=O)O)O2 (stereo not drawn) [Trolox] |
